Laboratory results: US20120035206A1, “PREPARATION AND APPLICATION OF NOVEL ANTIBACTERIAL AND ANTICANCER COMPOUNDS AND THEIR DERIVATIVES” (priority 2009, published 2012)
Values after ≈ are worked out from the molar mass of the structure shown.

Experiments:
Type in all cases: cell-based
[1] = system: CRL-1435PC-3; assay: In vitro anticancer MTT experiment; conditions: concentration 5 ug/ml, 48 h or 72 h, read-out: inhibition ratio CRL-1435PC-3
How it was run: (§1)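 Cells in RPMI 1640 with 10% fetal calf serum were seeded at 6000-7000 per well, rested 12 h at 37° C., then exposed to compound for 48 h or 72 h. MTT was read as OD at 570 nm. Inhibition ratio was derived against untreated and blank wells, with reported values taken at 5 ug/ml.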

[2] = system: HTB-131MDA-MB-453; assay: In vitro anticancer MTT experiment; conditions: concentration 5 ug/ml, 48 h or 72 h, read-out: inhibition ratio HTB-131MDA-MB-453
How it was run: as §1

[3] = system: FTC 133; assay: In vitro anticancer MTT experiment; conditions: Homo sapiens, concentration 5 ug/ml, 48 h or 72 h, read-out: inhibition ratio FTC 133
How it was run: as §1

[4] = system: CRL-2233SNU-398; assay: In vitro anticancer MTT experiment; conditions: concentration 5 ug/ml, 48 h or 72 h, read-out: inhibition ratio CRL-2233SNU-398
How it was run: as §1

[5] = system: L428; assay: In vitro anticancer MTT experiment; conditions: Homo sapiens, L-428, concentration 5 ug/ml, 48 h or 72 h, read-out: inhibition ratio L428
How it was run: as §1

[6] = system: AS24391; assay: In vitro anticancer MTT experiment; conditions: concentration 5 ug/ml, 48 h or 72 h, read-out: inhibition ratio AS24391
How it was run: as §1

[7] = system: B01092; assay: In vitro anticancer MTT experiment; conditions: concentration 5 ug/ml, 48 h or 72 h, read-out: inhibition ratio B01092
How it was run: as §1

[8] = system: HTB-38HT-29; assay: In vitro anticancer MTT experiment; conditions: concentration 5 ug/ml, 48 h or 72 h, read-out: inhibition ratio HTB-38HT-29
How it was run: as §1

[9] = system: L1210; assay: In vitro anticancer MTT experiment; conditions: Mus musculus, concentration 5 ug/ml, 48 h or 72 h, read-out: inhibition ratio L1210
How it was run: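 Reported inhibition ratio refers to 5 ug/ml compound, calculated from OD 570 nm against untreated-cell and medium-only references. MTT readout followed 48 h or 72 h drug exposure at 37° C., 5% CO2. Log-phase cells were plated at 6000-7000 per well in RPMI 1640 with 10% FCS.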

[10] = system: HTB-95637; assay: In vitro anticancer MTT experiment; conditions: concentration 5 ug/ml, 48 h or 72 h, read-out: inhibition ratio HTB-95637
How it was run: as §1

[11] = system: CRL-1469PANC-1; assay: In vitro anticancer MTT experiment; conditions: concentration 5 ug/ml, 48 h or 72 h, read-out: inhibition ratio CRL-1469PANC-1
How it was run: as §1

[12] = system: A375; assay: In vitro anticancer MTT experiment; conditions: Homo sapiens, A-375, concentration 5 ug/ml, 48 h or 72 h, read-out: inhibition ratio A375
How it was run: as §1

[13] = system: SGC7901; assay: In vitro anticancer MTT experiment; conditions: Homo sapiens, SGC-7901, concentration 5 ug/ml, 48 h or 72 h, read-out: inhibition ratio SGC7901
How it was run: as §1

[14] = system: HTB-94; assay: In vitro anticancer MTT experiment; conditions: concentration 5 ug/ml, 48 h or 72 h, read-out: inhibition ratio HTB-94
How it was run: as §1

[15] = system: M. gypseum; assay: In vitro antibacterial (antifungal) test, two-fold dilution MIC; conditions: Nannizzia gypsea, RPMI 1640, culture 2-7 days
[16] = system: S. schenekn; assay: as above; conditions: RPMI 1640, culture 2-7 days
[17] = system: Fusarium oxysporum vasinfectum; assay: as above; conditions: RPMI 1640, culture 2-7 days
[18] = system: C. neoformans; assay: as above; conditions: Cryptococcus neoformans, RPMI 1640, culture 2-7 days
[19] = system: Setosphaeria turcica; assay: as above; conditions: Exserohilum turcicum, RPMI 1640, culture 2-7 days
[20] = system: C. parapsilosis; assay: as above; conditions: Lodderomyces parapsilosis, RPMI 1640, culture 2-7 days
[21] = system: gibberella; assay: as above; conditions: RPMI 1640, culture 2-7 days
[22] = system: C. albicans; assay: as above; conditions: Candida albicans, read-out: MIC C. albicas
[23] = system: C. glabrata; assay: as above; conditions: Nakaseomyces glabratus, RPMI 1640, culture 2-7 days
[24] = system: C. tropicalis; assay: as above; conditions: Candida tropicalis, RPMI 1640, culture 2-7 days
[25] = system: Terchoderma; assay: as above; conditions: Trichoderma, RPMI 1640, culture 2-7 days
[26] = system: E. floccosum; assay: as above; conditions: Epidermophyton floccosum, RPMI 1640, culture 2-7 days
[27] = system: C. Krusei; assay: as above; conditions: Pichia kudriavzevii, RPMI 1640, culture 2-7 days
[28] = system: A. niger; assay: as above; conditions: Aspergillus niger, RPMI 1640, culture 2-7 days

O=C1/C(=C/Br)CSc2ccc(F)cc21 [Compound 11, (Z)-3-(bromomethylene)-6-fluorothiochroman-4-one]
inhibition at 5 µg/mL [1]: 47.9%
inhibition at 5 µg/mL [2]: 45.6%
inhibition at 5 µg/mL [3]: 56.7%
inhibition at 5 µg/mL [4]: 60.1%
inhibition at 5 µg/mL [5]: 50.3%
inhibition at 5 µg/mL [6]: 46.9%
inhibition at 5 µg/mL [7]: 45.5%
inhibition at 5 µg/mL [8]: 45.5%
inhibition at 5 µg/mL [9]: 86%
inhibition at 5 µg/mL [10]: 49.5%
inhibition at 5 µg/mL [11]: 39.4%
inhibition at 5 µg/mL [12]: 47%
inhibition at 5 µg/mL [13]: 59%
inhibition at 5 µg/mL [14]: 36.7%
MIC [15]: 64 µg/mL (≈ 234 µM)
MIC [16]: 32 µg/mL (≈ 117 µM)
MIC [17]: 32 µg/mL (≈ 117 µM)
MIC [18]: 32 µg/mL (≈ 117 µM)
MIC [19]: 32 µg/mL (≈ 117 µM)
MIC [20]: 32 µg/mL (≈ 117 µM)
MIC [21]: 16 µg/mL (≈ 58.6 µM)
MIC [22]: 64 µg/mL (≈ 234 µM)
MIC [23]: 8 µg/mL (≈ 29.3 µM)
MIC [24]: 64 µg/mL (≈ 234 µM)
MIC [25]: 16 µg/mL (≈ 58.6 µM)
MIC [26]: 32 µg/mL (≈ 117 µM)
MIC [27]: 16 µg/mL (≈ 58.6 µM)

Cc1ccc2c(c1)C(=O)CSC2 [Compound 13]
inhibition at 5 µg/mL [2]: 65.5%
inhibition at 5 µg/mL [3]: 57.8%
inhibition at 5 µg/mL [5]: 37.5%
inhibition at 5 µg/mL [6]: 45.1%
inhibition at 5 µg/mL [7]: 43.8%
inhibition at 5 µg/mL [8]: 57.3%
inhibition at 5 µg/mL [9]: 85.6%
inhibition at 5 µg/mL [10]: 56.6%
inhibition at 5 µg/mL [11]: 62.7%
inhibition at 5 µg/mL [12]: 74.3%
inhibition at 5 µg/mL [13]: 50.6%
inhibition at 5 µg/mL [14]: 45.6%
MIC [15]: 16 µg/mL (≈ 89.8 µM)
MIC [16]: 64 µg/mL (≈ 359 µM)
MIC [18]: 64 µg/mL (≈ 359 µM)
MIC [20]: 32 µg/mL (≈ 180 µM)
MIC [22]: 64 µg/mL (≈ 359 µM)
MIC [23]: 64 µg/mL (≈ 359 µM)
MIC [24]: 16 µg/mL (≈ 89.8 µM)
MIC [28]: 32 µg/mL (≈ 180 µM)
MIC [26]: 32 µg/mL (≈ 180 µM)

OC1/C(=C/Cl)SCc2ccccc21 (centres unmarked) [Compound 20, (Z)-3-(chloromethylene)isothiochroman-4-ol]
inhibition at 5 µg/mL [1]: 45.5%
inhibition at 5 µg/mL [2]: 25.8%
inhibition at 5 µg/mL [3]: 36.9%
inhibition at 5 µg/mL [4]: 40.4%
inhibition at 5 µg/mL [5]: 43.3%
inhibition at 5 µg/mL [6]: 49.8%
inhibition at 5 µg/mL [7]: 46.9%
inhibition at 5 µg/mL [8]: 45.5%
inhibition at 5 µg/mL [9]: 80.3%
inhibition at 5 µg/mL [10]: 56.2%
inhibition at 5 µg/mL [11]: 34.5%
inhibition at 5 µg/mL [12]: 50.2%
inhibition at 5 µg/mL [13]: 45.9%
inhibition at 5 µg/mL [14]: 45.7%
MIC [15]: 16 µg/mL (≈ 75.2 µM)
MIC [16]: 32 µg/mL (≈ 150 µM)
MIC [18]: 16 µg/mL (≈ 75.2 µM)
MIC [19]: 8 µg/mL (≈ 37.6 µM)
MIC [20]: 8 µg/mL (≈ 37.6 µM)
MIC [21]: 16 µg/mL (≈ 75.2 µM)
MIC [22]: 16 µg/mL (≈ 75.2 µM)
MIC [23]: 8 µg/mL (≈ 37.6 µM)
MIC [24]: 32 µg/mL (≈ 150 µM)
MIC [26]: 16 µg/mL (≈ 75.2 µM)
MIC [27]: 32 µg/mL (≈ 150 µM)

O=C1/C(=C\Cl)CSc2ccc(Cl)cc21 [Compound 21, (E)-6-chloro-3-(chloromethylene)thiochroman-4-one]
inhibition at 5 µg/mL [1]: 54.6%
inhibition at 5 µg/mL [2]: 55.6%
inhibition at 5 µg/mL [3]: 55.9%
inhibition at 5 µg/mL [4]: 46.7%
inhibition at 5 µg/mL [5]: 52.3%
inhibition at 5 µg/mL [6]: 60.3%
inhibition at 5 µg/mL [7]: 35.9%
inhibition at 5 µg/mL [8]: 54.3%
inhibition at 5 µg/mL [9]: 78.4%
inhibition at 5 µg/mL [10]: 54.3%
inhibition at 5 µg/mL [11]: 63%
inhibition at 5 µg/mL [12]: 56.9%
inhibition at 5 µg/mL [13]: 50%
MIC [15]: 32 µg/mL (≈ 131 µM)
MIC [16]: 16 µg/mL (≈ 65.3 µM)
MIC [17]: 32 µg/mL (≈ 131 µM)
MIC [18]: 4 µg/mL (≈ 16.3 µM)
MIC [19]: 32 µg/mL (≈ 131 µM)
MIC [20]: 8 µg/mL (≈ 32.6 µM)
MIC [21]: 8 µg/mL (≈ 32.6 µM)
MIC [22]: 8 µg/mL (≈ 32.6 µM)
MIC [23]: 8 µg/mL (≈ 32.6 µM)
MIC [24]: 16 µg/mL (≈ 65.3 µM)
MIC [25]: 4 µg/mL (≈ 16.3 µM)
MIC [26]: 16 µg/mL (≈ 65.3 µM)
MIC [27]: 8 µg/mL (≈ 32.6 µM)

O=C1/C(=C\Cl)CSc2ccc(F)cc21 [Compound 22, (E)-3-(chloromethylene)-6-fluorothiochroman-4-one]
inhibition at 5 µg/mL [1]: 30.5%
inhibition at 5 µg/mL [2]: 55.9%
inhibition at 5 µg/mL [4]: 49%
inhibition at 5 µg/mL [5]: 53.9%
inhibition at 5 µg/mL [6]: 43.5%
inhibition at 5 µg/mL [7]: 43.6%
inhibition at 5 µg/mL [8]: 47.8%
inhibition at 5 µg/mL [9]: 86.7%
inhibition at 5 µg/mL [10]: 36.9%
inhibition at 5 µg/mL [11]: 33.3%
inhibition at 5 µg/mL [12]: 56.7%
inhibition at 5 µg/mL [13]: 60.7%
inhibition at 5 µg/mL [14]: 51%
MIC [15]: 16 µg/mL (≈ 70 µM)
MIC [16]: 8 µg/mL (≈ 35 µM)
MIC [17]: 16 µg/mL (≈ 70 µM)
MIC [18]: 16 µg/mL (≈ 70 µM)
MIC [19]: 8 µg/mL (≈ 35 µM)
MIC [20]: 16 µg/mL (≈ 70 µM)
MIC [21]: 4 µg/mL (≈ 17.5 µM)
MIC [22]: 4 µg/mL (≈ 17.5 µM)
MIC [23]: 8 µg/mL (≈ 35 µM)
MIC [24]: 32 µg/mL (≈ 140 µM)
MIC [25]: 32 µg/mL (≈ 140 µM)
MIC [26]: 16 µg/mL (≈ 70 µM)
MIC [27]: 16 µg/mL (≈ 70 µM)
